Several values for one entry are separate records, joined by “and”; a condition that tells them apart may be missing. Equal entries are not always repeated.
How the values were obtained:
[1] = Rat pharmacokinetic study; details: for Vd: Vdss
CYP3A4/5 = test: Reversible CYP inhibition in human liver microsomes; details: for IC50: pH 7.4, probe midazolam (1′-hydroxylation), at approximately KM, IC50, Midazolam 1′-hydroxylation
OATP1B1 = molecular target: T1, OATP1B1 (Homo sapiens, UniProt Q9Y6L6); test: Transporter inhibition using transfected HEK293 cells; details: IC50, Rosuvastatin (0.5 µM)
T1 sequence (Q9Y6L6 1-691): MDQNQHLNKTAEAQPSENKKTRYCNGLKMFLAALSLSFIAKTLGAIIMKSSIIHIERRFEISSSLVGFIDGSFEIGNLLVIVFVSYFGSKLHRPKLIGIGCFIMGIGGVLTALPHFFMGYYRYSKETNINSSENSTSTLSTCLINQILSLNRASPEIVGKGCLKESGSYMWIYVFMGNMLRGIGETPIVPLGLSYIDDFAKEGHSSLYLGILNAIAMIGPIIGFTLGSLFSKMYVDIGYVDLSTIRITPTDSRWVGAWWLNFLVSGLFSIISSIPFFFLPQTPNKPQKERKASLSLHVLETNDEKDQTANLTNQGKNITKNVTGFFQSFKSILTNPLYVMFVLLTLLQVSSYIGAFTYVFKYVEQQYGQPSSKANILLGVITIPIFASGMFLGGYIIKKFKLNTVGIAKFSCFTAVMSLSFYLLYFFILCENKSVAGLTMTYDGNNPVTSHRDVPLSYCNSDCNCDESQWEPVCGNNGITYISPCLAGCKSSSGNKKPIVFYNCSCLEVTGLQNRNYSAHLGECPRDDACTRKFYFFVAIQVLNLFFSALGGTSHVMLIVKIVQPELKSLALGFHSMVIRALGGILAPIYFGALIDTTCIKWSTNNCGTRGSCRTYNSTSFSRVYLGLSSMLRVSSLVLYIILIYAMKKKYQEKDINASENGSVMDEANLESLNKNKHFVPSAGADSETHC

OAT1 = molecular target: T2, OAT1 (Homo sapiens, UniProt Q4U2R8); test: as above; details: IC50, [3H]PAH (0.5 µM)
T2 sequence (Q4U2R8 1-563): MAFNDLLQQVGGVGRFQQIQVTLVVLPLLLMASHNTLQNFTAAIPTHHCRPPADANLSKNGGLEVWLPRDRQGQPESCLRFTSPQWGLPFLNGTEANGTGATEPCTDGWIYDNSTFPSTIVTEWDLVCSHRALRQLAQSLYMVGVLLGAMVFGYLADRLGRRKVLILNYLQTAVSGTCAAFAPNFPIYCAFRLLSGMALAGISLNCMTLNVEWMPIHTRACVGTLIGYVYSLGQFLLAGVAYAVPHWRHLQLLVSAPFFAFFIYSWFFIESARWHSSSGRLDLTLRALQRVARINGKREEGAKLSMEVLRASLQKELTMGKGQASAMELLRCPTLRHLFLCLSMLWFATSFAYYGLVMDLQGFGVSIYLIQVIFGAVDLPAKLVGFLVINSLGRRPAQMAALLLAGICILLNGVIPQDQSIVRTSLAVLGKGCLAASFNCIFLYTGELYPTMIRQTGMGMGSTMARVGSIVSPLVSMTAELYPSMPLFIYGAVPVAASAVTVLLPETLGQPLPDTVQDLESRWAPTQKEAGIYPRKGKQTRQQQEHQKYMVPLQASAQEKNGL

OCT2 = molecular target: T3, OCT2 (Homo sapiens, UniProt O15244); test: as above; details: IC50, [14C]Metformin (20 µM)
T3 sequence (O15244 1-555): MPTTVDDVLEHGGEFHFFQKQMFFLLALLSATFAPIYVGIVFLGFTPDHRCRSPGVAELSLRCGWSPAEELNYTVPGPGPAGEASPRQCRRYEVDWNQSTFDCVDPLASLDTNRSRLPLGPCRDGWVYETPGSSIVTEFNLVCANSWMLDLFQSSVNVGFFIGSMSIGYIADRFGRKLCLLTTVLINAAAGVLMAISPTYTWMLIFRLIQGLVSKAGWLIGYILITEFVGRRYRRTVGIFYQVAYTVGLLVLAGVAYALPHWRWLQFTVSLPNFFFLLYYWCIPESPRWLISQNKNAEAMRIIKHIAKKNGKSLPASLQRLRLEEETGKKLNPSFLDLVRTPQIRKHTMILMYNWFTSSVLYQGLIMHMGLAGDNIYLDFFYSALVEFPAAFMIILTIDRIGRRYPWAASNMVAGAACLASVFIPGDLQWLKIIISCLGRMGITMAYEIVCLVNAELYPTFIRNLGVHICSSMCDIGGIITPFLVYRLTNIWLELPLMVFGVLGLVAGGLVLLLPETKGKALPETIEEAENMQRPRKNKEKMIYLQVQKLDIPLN

[2] = rat, PF-07304814 prodrug dosed […] intravenous, individual rats, […]
[3] = human, human liver microsomes, pH 7.4, probe midazolam (mdz), Percent of Control Activity, CYP 3A4/5 (mdz), 30-Minute Preincubation
[4] = human, human liver microsomes, pH 7.4, probe midazolam (mdz), Percent of Control Activity, CYP 3A4/5 (mdz), Zero-Minute Preincubation

With COc1cccc2[nH]c(C(=O)N[C@@H](CC(C)C)C(=O)N[C@@H](C[C@@H]3CCNC3=O)C(=O)COP(=O)(O)O)cc12 [PF-07304814] the clearance ([1]; male, Wistar-Hannover, rat, plasma, iv, CL, rat IV, PF-07304814 […] (n=2, range), PF-00835231 2mg/kg (n=3, ± SD)) was 194 mL/min/kg, the half-life ([1]; male, Wistar-Hannover, rat, plasma, iv, Terminal T1/2, rat IV, PF-07304814 […] (n=2, range), PF-00835231 2mg/kg (n=3, ± SD)) was 18 min and the Vd ([1]; male, Wistar-Hannover, rat, plasma, iv, rat IV, PF-07304814 […] (n=2, range), PF-00835231 2mg/kg (n=3, ± SD)) was 0.58 L/kg. The clearance ([1]; male, Wistar-Hannover, rat, plasma, iv, […], Clearance, Mean Data, PF-07304814 prodrug dosed […] intravenous, mean) was 194 mL/min/kg, the clearance ([1]; male, Wistar-Hannover, rat, plasma, iv, […], Clearance, PF-07304814 prodrug dosed […] intravenous, individual rats) was 168 mL/min/kg and the half-life ([1]; male, Wistar-Hannover, rat, plasma, iv, […], Half life, Mean Data, PF-07304814 prodrug dosed […] intravenous, mean) was 18 min. It also gave a half-life ([1]; male, Wistar-Hannover, rat, plasma, iv, […], Half life, PF-07304814 prodrug dosed […] intravenous, individual rats) of 21.6 min, a Vd ([1]; male, Wistar-Hannover, rat, plasma, iv, […], Mean Data, PF-07304814 prodrug dosed […] intravenous, mean) of 0.58 L/kg and a Vd ([1]; male, Wistar-Hannover, rat, plasma, iv, […], PF-07304814 prodrug dosed […] intravenous, individual rats) of 0.567 L/kg. For the same compound, the “%unchanged in urine” value ([1]; rat IV, PF-07304814 […], PF-00835231 2mg/kg) was < 0.1%, the Half life [1, 2] was 13.8 min and the Vdss [1, 2] was 0.592 L/kg. For the same compound, the clearance [1, 2] was 220 mL/min/kg, the “Percent of Control Activity” value (CYP3A4/5; CYP 3A4/5 (mdz), 0.01 µM, 30-Minute Preincubation) was 103.5% and the “Percent of Control Activity” value (CYP3A4/5; CYP 3A4/5 (mdz), 15.8 µM, Zero-Minute Preincubation) was 105.7%. The “Percent of Control Activity” value (CYP3A4/5; CYP 3A4/5 (mdz), 39.8 µM, 30-Minute Preincubation) was 99.7%, the “Percent of Control Activity” value (CYP3A4/5; CYP 3A4/5 (mdz), 100 µM, 30-Minute Preincubation) was 95.6% and the “Percent of Control Activity” value (CYP3A4/5; CYP 3A4/5 (mdz), 100 µM, Zero-Minute Preincubation) was 100.4%. For the same compound, the IC50 (CYP3A4/5; human, human liver microsomes, T0) was > 100 µM, the IC50 (CYP3A4/5; human, human liver microsomes, T30) was > 100 µM and the activity at 0.01 µM (CYP3A4/5; human, human liver microsomes, pH 7.4, probe midazolam (mdz), Percent of Control Activity, CYP 3A4/5 (mdz), 0.01 µM, Zero-Minute Preincubation) was 96.3%. For the same compound, the activity at 0.158 µM (CYP3A4/5; [3]) was 103%, the activity at 0.158 µM (CYP3A4/5; [4]) was 95% and the activity at 0.398 µM (CYP3A4/5; human, human liver microsomes, pH 7.4, probe midazolam (mdz), Percent of Control Activity, CYP 3A4/5 (mdz), 0.398 µM, 30-Minute Preincubation) was 100%. For the same compound, the activity at 1 µM (CYP3A4/5; [3]) was 100%, the activity at 1 µM (CYP3A4/5; [4]) was 99.8% and the activity at 15.8 µM (CYP3A4/5; human, human liver microsomes, pH 7.4, probe midazolam (mdz), Percent of Control Activity, CYP 3A4/5 (mdz), 15.8 µM, Zero-Minute Preincubation) was 101%. For the same compound, the activity at 100 µM (CYP3A4/5; human, human liver microsomes, pH 7.4, probe midazolam (mdz), Percent of Control Activity, CYP 3A4/5 (mdz), 100 µM, 30-Minute Preincubation) was 95%, the IC50 (OATP1B1) was 134 µM and > 130 µM and the IC50 (OAT1) was > 300 µM. For the same compound, the IC50 (OCT2) was > 300 µM.

From PMC8523698, “Preclinical characterization of an intravenous coronavirus 3CL protease inhibitor for the potential treatment of COVID19” (Nature Communications, 2021)
